Source: patent US20260240163A1, “HERBICIDAL COMBINATIONS AND A METHOD FOR CONTROLLING UNDESIRED VEGETATION” (UPL Mauritius Limited, priority 2022, published 2026)

Tested on: Euphorbia heterophylla
Assay: Post-emergence herbicidal efficacy trials; expected efficacy by Colby method
Format: in vivo
Conditions: for Observed efficacy (%) of L-glufosinate ammonium (150 g a.i./ha): Table 11
Protocol: Methodology: Trials were conducted to evaluate the efficacy of the combinations comprising L-glufosinate ammonium and the additional herbicides on Euphorbia genus weeds.
The soil used was sandy clay loam-sand: 68.0%; silt: 8.0%; clay: 24.0%.
All treatments were in 4 replications per treatment with a spray volume of about 150 L/ha.
Efficacy Evaluation: The expected efficacy of the combination comprising L-glufosinate ammonium and additional herbicides was calculated using the well-established Colby method.
In the Colby method, the expected (or predicted) response of a combination of herbicides is calculated by taking the product of the observed response for each individual component of the combination when applied alone, divided by 100, and subtracting this value from the sum of the observed response for each component when applied alone. An unexpected enhancement in efficacy of the combination is then determined by comparing the observed response of the combination to the expected (or predicted) response as calculated from the observed response of each individual component alone. If the observed response of the combination is greater than the expected (or predicted) response, or stated conversely, if the difference between the observed and expected response is greater than zero, then the combination is said to be synergistic or unexpectedly effective (Colby, S. R., Weeds, 1967 (15), p. 20-22). The Colby method requires only a single dose of each herbicide applied alone and the mixture of both doses. The formula used to calculate the expected efficacy (EE) which was compared with the observed efficacy (OE) to determine the efficacy of the present disclosure is explained hereinbelow:
The expected efficacy for a combination of two active ingredients is as follows:
wherein, • A=Observed efficacy of active ingredient A at the same concentration as used in the mixture. • B=Observed efficacy of the active ingredient B at the same concentration as used in the mixture.

SMILES: C[N+](C)(C)CCO.O=C([O-])COc1ccc(Cl)cc1Cl [2,4-D choline, 2,4-dichlorophenoxyacetic acid (2,4-D) choline]
- Observed efficacy (%) of 2,4-D choline (228 g a.i./ha) (14 DAA): 30%
- Observed efficacy (%) of 2,4-D choline (228 g a.i./ha) (21 DAA): 30%

SMILES: COc1c(Cl)ccc(Cl)c1C(=O)O [Dicamba]
- Observed efficacy (%) of Dicamba (228 g a.i./ha) (7 DAA): 45%
- Observed efficacy (%) of Dicamba (228 g a.i./ha) (14 DAA): 40%

SMILES: COc1c(Cl)ccc(-c2nc(C(=O)OCc3ccccc3)c(Cl)c(N)c2F)c1F [Florpyrauxifen-benzyl]
- Observed efficacy (%) of Florpyrauxifen-benzyl (15 g a.i./ha) (7 DAA): 65%
- Observed efficacy (%) of Florpyrauxifen-benzyl (15 g a.i./ha) (14 DAA): 90%

SMILES: CP(=O)(O)CC[C@H](N)C(=O)O.N [L-glufosinate ammonium]
- Observed efficacy (%) of L-glufosinate ammonium (Glufosinate-P-ammonium) (150 g a.i./ha) (7 DAA, Table 6): 95%
- Observed efficacy (%) of L-glufosinate ammonium (Glufosinate-P-ammonium) (150 g a.i./ha) (7 DAA, Table 7): 95%
- Observed efficacy (%) of L-glufosinate ammonium (Glufosinate-P-ammonium) (150 g a.i./ha) (7 DAA, Table 8): 95%
- Observed efficacy (%) of L-glufosinate ammonium (Glufosinate-P-ammonium) (150 g a.i./ha) (7 DAA, Table 9): 95%
- Observed efficacy (%) of L-glufosinate ammonium (Glufosinate-P-ammonium) (150 g a.i./ha) (7 DAA, Table 10): 95%
- Observed efficacy (%) of L-glufosinate ammonium (Glufosinate-P-ammonium) (150 g a.i./ha) (14 DAA, Table 6): 98%
- Observed efficacy (%) of L-glufosinate ammonium (Glufosinate-P-ammonium) (150 g a.i./ha) (14 DAA, Table 7): 98%
- Observed efficacy (%) of L-glufosinate ammonium (Glufosinate-P-ammonium) (150 g a.i./ha) (14 DAA, Table 9): 93.5%
- Observed efficacy (%) of L-glufosinate ammonium (Glufosinate-P-ammonium) (150 g a.i./ha) (14 DAA, Table 10): 93.5%
- Observed efficacy (%) of L-glufosinate ammonium (150 g a.i./ha) (14 DAA): 98%
- Observed efficacy (%) of L-glufosinate ammonium (Glufosinate-P-ammonium) (150 g a.i./ha) (21 DAA, Table 9): 88.8%
- Observed efficacy (%) of L-glufosinate ammonium (Glufosinate-P-ammonium) (150 g a.i./ha) (21 DAA, Table 10): 88.8%
- Observed efficacy (%) of L-glufosinate ammonium (150 g a.i./ha) (21 DAA): 98%
- Observed efficacy (%) of L-glufosinate ammonium (Glufosinate-P-ammonium) (150 g a.i./ha) (28 DAA, Table 9): 93.1%
- Observed efficacy (%) of L-glufosinate ammonium (Glufosinate-P-ammonium) (150 g a.i./ha) (28 DAA, Table 10): 93.1%

SMILES: CSc1nnc(C(C)(C)C)c(=O)n1N [Metribuzin]
- Observed efficacy (%) of Metribuzin (360 g a.i./ha) (7 DAA): 41.9%
- Observed efficacy (%) of Metribuzin (360 g a.i./ha) (14 DAA): 38.1%
- Observed efficacy (%) of Metribuzin (360 g a.i./ha) (21 DAA): 29.4%
- Observed efficacy (%) of Metribuzin (360 g a.i./ha) (28 DAA): 12.5%

SMILES: CCN(CC)C(=O)C(C)Oc1cccc2ccccc12 (stereo not drawn) [Napropamide]
- Observed efficacy (%) of Napropamide (675 g a.i./ha) (7 DAA): 20%
- Observed efficacy (%) of Napropamide (675 g a.i./ha) (14 DAA): 10%
- Observed efficacy (%) of Napropamide (675 g a.i./ha) (21 DAA): 0%
- Observed efficacy (%) of Napropamide (675 g a.i./ha) (28 DAA): 0%

SMILES: CCOc1cc(Oc2ccc(C(F)(F)F)cc2Cl)ccc1[N+](=O)[O-] [Oxyfluorfen]
- Observed efficacy (%) of Oxyfluorfen (430 g a.i./ha) (430 g a.i./ha, 7 DAA): 75%
